Legend:
RORβ = target: T1, RORβ (Homo sapiens, UniProt Q92753); assay: Binding of radiolabeled T1317 to RORβ; conditions: radiolabeled compound
T1 sequence (Q92753 1-470): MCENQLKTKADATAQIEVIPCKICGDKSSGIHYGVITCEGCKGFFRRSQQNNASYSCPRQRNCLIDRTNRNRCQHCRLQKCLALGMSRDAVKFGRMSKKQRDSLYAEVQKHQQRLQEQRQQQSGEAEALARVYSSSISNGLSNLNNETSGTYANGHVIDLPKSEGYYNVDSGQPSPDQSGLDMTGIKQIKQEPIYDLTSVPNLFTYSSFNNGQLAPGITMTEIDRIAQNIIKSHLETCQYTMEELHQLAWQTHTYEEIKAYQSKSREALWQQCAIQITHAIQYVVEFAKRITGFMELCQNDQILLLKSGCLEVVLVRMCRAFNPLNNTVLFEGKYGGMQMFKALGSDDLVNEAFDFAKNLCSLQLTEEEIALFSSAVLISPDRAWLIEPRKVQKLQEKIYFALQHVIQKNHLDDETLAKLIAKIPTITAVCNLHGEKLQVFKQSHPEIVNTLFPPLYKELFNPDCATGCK

RORα [1] = target: T2, RORα (Homo sapiens, UniProt P35398); assay: Gal4-RORα LBD / UAS luciferase cotransfection assay; assay type: cell-based; conditions: Gal4 chimeric cotransfection
T2 construct: expressed in transfected cells; host or cells: HEK293T
T2 sequence (P35398 272-510 limits assumed): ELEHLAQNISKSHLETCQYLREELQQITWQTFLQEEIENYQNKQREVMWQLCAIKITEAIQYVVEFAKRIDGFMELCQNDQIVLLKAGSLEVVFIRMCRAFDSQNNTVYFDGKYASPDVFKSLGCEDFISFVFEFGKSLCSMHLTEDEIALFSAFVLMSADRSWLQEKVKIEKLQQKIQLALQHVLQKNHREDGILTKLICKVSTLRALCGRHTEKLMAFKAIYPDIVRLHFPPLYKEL

LXR = target: T3, LXR (Homo sapiens, UniProt Q13133); assay: Gal4-LXRα / UAS luciferase cotransfection assay; assay type: cell-based; conditions: Gal4 chimeric cotransfection
T3 sequence (Q13133 209-447 limits assumed): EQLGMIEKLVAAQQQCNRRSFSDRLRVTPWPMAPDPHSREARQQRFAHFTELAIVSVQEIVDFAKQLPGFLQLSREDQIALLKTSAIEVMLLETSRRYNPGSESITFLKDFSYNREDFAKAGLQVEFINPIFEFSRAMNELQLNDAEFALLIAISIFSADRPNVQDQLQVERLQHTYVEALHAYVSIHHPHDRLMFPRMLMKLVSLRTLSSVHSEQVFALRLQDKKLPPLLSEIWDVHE
Method: The cells were treated with either DMSO or various compounds as indicated four hours after replating. Following additional 20 hour incubation, luciferase levels were assayed by one-step addition of 20 μL BriteLite (Perkin Elmer) and read using an Envision multilabel plate reader (Perkin Elmer).

FXR = target: T4, FXR (Homo sapiens, UniProt Q96RI1); assay: Gal4-FXR / UAS luciferase cotransfection assay; assay type: cell-based; conditions: Gal4 chimeric cotransfection
T4 sequence (Q96RI1 262-486 limits assumed): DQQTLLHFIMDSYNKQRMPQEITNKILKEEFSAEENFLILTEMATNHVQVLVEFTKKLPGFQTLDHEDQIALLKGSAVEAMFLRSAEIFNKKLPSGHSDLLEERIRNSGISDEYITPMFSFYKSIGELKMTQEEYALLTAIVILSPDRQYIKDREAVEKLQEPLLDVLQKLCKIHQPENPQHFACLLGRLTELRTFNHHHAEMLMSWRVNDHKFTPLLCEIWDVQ

RORα [2] = target: T5, RORα (Homo sapiens, UniProt P35398); assay: IL-17 promoter luciferase reporter with full-length RORα; assay type: cell-based
T5 sequence (P35398 1-523): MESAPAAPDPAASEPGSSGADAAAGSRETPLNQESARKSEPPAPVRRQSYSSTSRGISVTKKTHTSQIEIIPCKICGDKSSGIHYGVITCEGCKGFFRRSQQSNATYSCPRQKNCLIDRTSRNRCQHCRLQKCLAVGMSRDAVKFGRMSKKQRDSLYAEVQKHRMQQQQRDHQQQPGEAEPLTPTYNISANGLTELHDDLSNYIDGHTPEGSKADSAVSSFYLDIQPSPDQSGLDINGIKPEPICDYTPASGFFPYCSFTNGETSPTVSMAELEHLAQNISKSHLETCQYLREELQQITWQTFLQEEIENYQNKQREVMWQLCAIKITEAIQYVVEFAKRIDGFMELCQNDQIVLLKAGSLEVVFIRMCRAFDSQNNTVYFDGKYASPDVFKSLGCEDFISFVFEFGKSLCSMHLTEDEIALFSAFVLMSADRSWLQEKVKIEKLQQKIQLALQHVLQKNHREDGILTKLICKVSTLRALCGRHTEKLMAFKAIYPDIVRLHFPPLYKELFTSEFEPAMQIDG
Description: Since RORα and RORγ are critical regulators of IL-17 gene expression, we examined whether SR1555 would affect RORα and RORγ-dependent regulation of an IL-17 promoter driven luciferase reporter construct. HEK293 cells were transiently transfected with an IL-17 reporter, either full-length RORα or RORγ, and treated with an increasing concentration of SR1555[8]. In a dose dependent manner, SR1555 suppressed IL-17 promoter driven activity by RORγ but not RORα, further confirming that SR1555 is indeed a RORγ-specific inverse agonist (FIG. 1d). Finally, using EL4 cells, a murine thymoma which endogenously express RORα, RORγ t, and IL-17A, we examined whether SR1555 affected endogenous IL-17 gene expression. EL4 cells were treated with DMSO or SR1555 for 24 hours and analyzed for Il17a gene expression by quantitative real-time PCR.
Cotransfection assays were performed as previously described in HEK293 cells (Gal4 cotransfection assay or IL-17 luciferase reporter)[8]. […]
HEK293 cells were maintained in Dulbecco's modified Eagle's medium (DMEM) supplemented with 10% fetal bovine serum at 37° C. under 5% CO2. […] The luciferase levels were assayed following additional 20 hour incubation by one-step addition of BriteLite Plus (Perkin Elmer) and read using an Envision (Perkin Elmer). […]

EL4 cells = assay: Il17a gene expression in EL4 cells by quantitative real-time PCR; assay type: cell-based, murine; conditions: 10 μM, 24 hours
Method: […]. Cotransfection assays were performed as previously described in HEK293 cells (Gal4 cotransfection assay or IL-17 luciferase reporter)[8]. HEK293 and the mouse lymphoma EL4 (ATCC) cells were maintained in DMEM supplemented with 10% FBS plus antibiotics (penicillin and streptomycin; Invitrogen).
(§1) RNA extraction and QRT-PCR analysis was performed as previously described.

T regulatory cells = assay: T regulatory cell differentiation of splenocytes (RTPCR, Foxp3 FACS); assay type: cell-based, murine; conditions: 10 μM
Method: Therefore, the environmental cues associated with the concentration of TGF[…] dictates the balance between TH17 and T regulatory cell differentiation. In light of the reciprocal relationship between these two cell types, we assessed whether SR1555 affected the development of T regulatory cells in vitro. Splenocytes were cultured under T regulatory cell polarizing conditions (TGFβ and IL-2) for 3 days. […] To determine whether the gene expression data would correlate with protein expression, we again cultured splenocytes for 5 days under T regulatory cell polarizing conditions in the presence of DMSO or SR1555 and examined the expression of Foxp3 by intracellular cytokine FACS analysis.
Splenocytes were differentiated under the following conditions: iTreg-10 μg/mL anti-IFNγ, 10 μg/mL anti-IL-4, and 2 ng/mL TGFβ (R&D Systems); 20 ug/mL anti-IFNγ, 20 ug/mL anti-IL-4, 1 ng/mL TGFβ, and 10 ng/mL IL-6 (R&D Systems) for TH17 conditions. All cultures were stimulated with 1 μg/mL anti-CD3 (eBiosciences) and 1 μg/mL anti-CD28 (eBiosciences). Four to five days after activation, all cells were restimulated with 5 ng/mL phorbol-12-myristate-13-acetate (PMA) (Sigma) and 500 ng/mL ionomycin (Sigma) for 2 hours with the addition of GolgiStop (BD Bioscience) for an additional 2 hours before intracellular staining. Cells were cultured in RPMI 1640 medium (Invitrogen) with 10% FBS and antibiotics.
as §1

RORα [3] = target: T2, RORα; assay: Competitive radioligand binding assay on RORα; conditions: data not shown
Description: Concurrent with our characterization of SR1001, several other groups identified RORγ-specific inverse agonists. Similar to SR1001, these ligands inhibited TH17 cell development and function. […] Compounds were identified using a screening approach similar to SR1001 and a RORγ-selective inverse agonist. SR1555, was identified (FIG. 1a). Compound SR1555 is shown as compound 3 in Table 1. […] Next we examined the direct binding of SR1555 to RORα and RORγ in competitive radioligand binding assays.

[4] = T regulatory polarizing conditions, 3 days

For O=S(=O)(c1ccccc1)N(CC(F)(F)F)c1ccc(C(O)(C(F)(F)F)C(F)(F)F)cc1 [Compound T1317], the “binding to RORβ” value (RORβ) was “does in fact bind to RORβ”.
CC(=O)N1CCN(Cc2ccc(-c3ccc(C(O)(C(F)(F)F)C(F)(F)F)cc3)cc2)CC1 [SR1555] was tested, and the “effect on transcriptional activity of RORα” value (RORα [1]) was “devoid of LXR, FXR, and RORα activity”, the “effect on LXR activity” value (LXR) was “devoid of LXR, FXR, and RORα activity” and the “effect on transcriptional activity of FXR” value (FXR) was “devoid of LXR, FXR, and RORα activity”. The “IL-17 promoter driven activity by RORα” value (RORα [2]) was “not RORα”, the “inhibition of Il17a gene expression” value (EL4 cells) was “greater than 70%” and the “expression of Foxp3+ T cells” value (T regulatory cells; 5 days, FACS) was “almost two-fold increase”. The “gene expression of Foxp3” value (T regulatory cells; [4]) was “effectively increased the gene expression of Foxp3”, the “gene expression of Rorγt” value (T regulatory cells; [4]) was “suppressing the gene expression of Rorγt” and the “displacement of [3H]T0901317 from RORα” value (RORα [3]) was “not RORα”.
